# In patent publication US12427157B2, “Methods for treatment of diseases involving acidic or hypoxic diseased tissues” (Cybrexa 1, Inc., priority 2018, dated 2025):
# Residues, ends and D or L forms follow the SMILES beside them. *: point of attachment. X12 = C[C@H](COC(=O)N(C)Cc1ccc(-c2[nH]c3cc(F)cc4c3c2CCNC4=O)cc1)S*; X19 = CN(Cc1ccc(-c2[nH]c3cc(F)cc4c3c2CCNC4=O)cc1)C(=O)OCCS*; X2 = NC(=O)c1cccc2[nH]c(-c3ccc(COC(=O)OCCS*)cc3)nc12
# Molecular target: PARP (Homo sapiens, UniProt P09874)
# Experiment: Enzymatic Assay 2: HT Universal Chemiluminescent PARP Assay of cleaved compounds;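 further: PARP reaction with activated DNA run 1 h at room temperature, product detected via streptavidin-HRP and luminescence endpoint reading on a plate reader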
# Conditions: read-out: IC50 Enzymatic Assay 2; Examples cleaved per Example A (crude cleavage solution); R^8H starting materials as such
# Description: An equal volume of 1×PARP cocktail containing activated DNA was added to each well and the reaction was incubated for one hour at room temperature. The wells were washed twice with 1×PBS+0.1% Triton X-100 and twice with PBS. 50 ul/well of diluted streptavidin-HRP was added and the wells were incubated for one hour at room temperature. The wells were washed twice with 1×PBS+0.1% Triton X-100 and washed twice with PBS. The liquid was 5 removed, 100 ul/well 1:1 PeroxyGlow A/PeroxyGlow B was added and the chemiluminescent readings were measured on a BioTek Cytation 5 plate reader using the luminescence fiber endpoint.
# Chain of PARP (P09874 whole entry): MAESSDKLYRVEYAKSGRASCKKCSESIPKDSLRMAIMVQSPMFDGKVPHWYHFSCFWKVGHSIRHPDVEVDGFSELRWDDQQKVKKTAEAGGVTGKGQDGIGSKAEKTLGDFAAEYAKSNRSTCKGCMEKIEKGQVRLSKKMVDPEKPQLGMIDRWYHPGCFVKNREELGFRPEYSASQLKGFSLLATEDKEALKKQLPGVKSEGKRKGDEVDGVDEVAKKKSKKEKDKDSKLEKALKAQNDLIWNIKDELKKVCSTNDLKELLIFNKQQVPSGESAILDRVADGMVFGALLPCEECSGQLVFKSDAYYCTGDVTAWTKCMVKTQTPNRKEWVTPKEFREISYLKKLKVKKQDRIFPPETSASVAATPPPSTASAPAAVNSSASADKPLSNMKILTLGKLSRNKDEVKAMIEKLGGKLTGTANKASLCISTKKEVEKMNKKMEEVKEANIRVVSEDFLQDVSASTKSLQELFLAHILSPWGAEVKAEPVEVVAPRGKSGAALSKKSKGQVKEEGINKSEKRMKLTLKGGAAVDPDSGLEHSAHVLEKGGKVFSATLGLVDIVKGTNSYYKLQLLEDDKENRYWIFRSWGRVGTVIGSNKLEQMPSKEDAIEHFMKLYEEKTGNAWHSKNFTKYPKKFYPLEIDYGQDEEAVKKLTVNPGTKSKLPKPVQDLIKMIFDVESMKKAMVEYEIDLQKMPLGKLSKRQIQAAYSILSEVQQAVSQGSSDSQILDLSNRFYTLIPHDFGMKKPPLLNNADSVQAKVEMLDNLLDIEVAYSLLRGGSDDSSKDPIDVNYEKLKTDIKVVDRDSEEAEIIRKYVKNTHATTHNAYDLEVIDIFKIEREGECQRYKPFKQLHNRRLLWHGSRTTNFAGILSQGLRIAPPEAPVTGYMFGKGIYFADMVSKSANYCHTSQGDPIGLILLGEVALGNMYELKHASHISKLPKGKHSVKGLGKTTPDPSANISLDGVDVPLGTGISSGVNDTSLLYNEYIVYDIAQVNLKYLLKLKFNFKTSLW
row,Structure (SMILES),IC50 [nM]
1,CC(C)C[C@H](NC(=O)[C@H](Cc1ccc(O)cc1)NC(=O)[C@H](C)NC(=O)[C@H](CCCNC(=N)N)NC(=O)[C@H](Cc1c[nH]c2ccccc12)NC(=O)[C@@H]1CCCN1C(=O)[C@H](CC(N)=O)NC(=O)[C@H](CCC(N)=O)NC(=O)[C@H](CC(=O)O)NC(=O)[C@H](CC(=O)O)NC(=O)[C@H](C)N)C(=O)N[C@@H](CC(=O)O)C(=O)N[C@@H](CC(C)C)C(=O)N[C@@H](CC(C)C)C(=O)N[C@@H](Cc1ccccc1)C(=O)N1CCC[C@H]1C(=O)N[C@H](C(=O)N[C@@H](CC(=O)O)C(=O)N[C@H](C(=O)N[C@@H](CC(C)C)C(=O)N[C@@H](CC(C)C)C(=O)N[C@@H](CC(C)C)C(=O)N[C@@H](CC(=O)O)C(=O)N[C@@H](CC(C)C)C(=O)N[C@@H](CC(C)C)C(=O)N[C@@H](Cc1c[nH]c2ccccc12)C(=O)N[C@@H](CSSCCOC(=O)OCc1ccc(-c2nc3c(C(N)=O)cccc3[nH]2)cc1)C(=O)NCC(=O)O)[C@@H](C)O)[C@@H](C)O [Example 1],12.1
2,CC[C@H](C)[C@H](NC(=O)[C@@H]1CCCN1C(=O)[C@H](CC(N)=O)NC(=O)[C@H](CCC(N)=O)NC(=O)[C@H](CCC(=O)O)NC(=O)[C@H](C)N)C(=O)N[C@@H](Cc1ccc(O)cc1)C(=O)N[C@@H](Cc1c[nH]c2ccccc12)C(=O)N[C@@H](C)C(=O)N[C@@H](CCCNC(=N)N)C(=O)N[C@@H](Cc1ccc(O)cc1)C(=O)N[C@@H](C)C(=O)N[C@@H](CC(=O)O)C(=O)N[C@@H](Cc1c[nH]c2ccccc12)C(=O)N[C@@H](CC(C)C)C(=O)N[C@@H](Cc1ccccc1)C(=O)N[C@H](C(=O)N[C@H](C(=O)N1CCC[C@H]1C(=O)N[C@@H](CC(C)C)C(=O)N[C@@H](CC(C)C)C(=O)N[C@@H](CC(C)C)C(=O)N[C@@H](CC(C)C)C(=O)N[C@@H](CC(=O)O)C(=O)N[C@@H](CC(C)C)C(=O)N[C@@H](C)C(=O)N[C@@H](CC(C)C)C(=O)N[C@@H](CC(C)C)C(=O)N[C@H](C(=O)N[C@@H](CC(=O)O)C(=O)N[C@@H](C)C(=O)N[C@@H](CC(=O)O)C(=O)N[C@@H](CCC(=O)O)C(=O)N[C@@H](CSSCCOC(=O)OCc1ccc(-c2nc3c(C(N)=O)cccc3[nH]2)cc1)C(=O)NCC(=O)O)C(C)C)[C@@H](C)O)[C@@H](C)O [Example 2] (H-AEQNPIYWARYADWLFTTPLLLLDLALLVDADEC(X2)G-OH; N-terminus and C-terminus assumed),9.52
3,CC(C)C[C@H](NC(=O)[C@H](Cc1ccc(O)cc1)NC(=O)[C@H](C)NC(=O)[C@H](CCCNC(=N)N)NC(=O)[C@H](Cc1c[nH]c2ccccc12)NC(=O)[C@@H]1CCCN1C(=O)[C@H](CC(N)=O)NC(=O)[C@H](CCC(N)=O)NC(=O)[C@H](CC(=O)O)NC(=O)[C@H](CC(=O)O)NC(=O)[C@H](C)N)C(=O)N[C@@H](CC(=O)O)C(=O)N[C@@H](CC(C)C)C(=O)N[C@@H](CC(C)C)C(=O)N[C@@H](Cc1ccccc1)C(=O)N1CCC[C@H]1C(=O)N[C@H](C(=O)N[C@@H](CC(=O)O)C(=O)N[C@H](C(=O)N[C@@H](CC(C)C)C(=O)N[C@@H](CC(C)C)C(=O)N[C@@H](CC(C)C)C(=O)N[C@@H](CC(=O)O)C(=O)N[C@@H](CC(C)C)C(=O)N[C@@H](CC(C)C)C(=O)N[C@@H](Cc1c[nH]c2ccccc12)C(=O)N[C@@H](CC(=O)O)C(=O)N[C@@H](C)C(=O)N[C@@H](CC(=O)O)C(=O)N[C@@H](CCC(=O)O)C(=O)N[C@@H](CSSCCOC(=O)N1CCC[C@@H](c2ccc(-n3cc4cccc(C(N)=O)c4n3)cc2)C1)C(=O)NCC(=O)O)[C@@H](C)O)[C@@H](C)O [Example 10],64.9
4,CC(C)C[C@H](NC(=O)[C@H](Cc1ccc(O)cc1)NC(=O)[C@H](C)NC(=O)[C@H](CCCNC(=N)N)NC(=O)[C@H](Cc1c[nH]c2ccccc12)NC(=O)[C@@H]1CCCN1C(=O)[C@H](CC(N)=O)NC(=O)[C@H](CCC(N)=O)NC(=O)[C@H](CC(=O)O)NC(=O)[C@H](CC(=O)O)NC(=O)[C@H](C)N)C(=O)N[C@@H](CC(=O)O)C(=O)N[C@@H](CC(C)C)C(=O)N[C@@H](CC(C)C)C(=O)N[C@@H](Cc1ccccc1)C(=O)N1CCC[C@H]1C(=O)N[C@H](C(=O)N[C@@H](CC(=O)O)C(=O)N[C@H](C(=O)N[C@@H](CC(C)C)C(=O)N[C@@H](CC(C)C)C(=O)N[C@@H](CC(C)C)C(=O)N[C@@H](CC(=O)O)C(=O)N[C@@H](CC(C)C)C(=O)N[C@@H](CC(C)C)C(=O)N[C@@H](Cc1c[nH]c2ccccc12)C(=O)N[C@@H](CC(=O)O)C(=O)N[C@@H](C)C(=O)N[C@@H](CC(=O)O)C(=O)N[C@@H](CCC(=O)O)C(=O)N[C@@H](CSSCCOC(=O)N1CCC[C@]1(C)c1nc2c(C(N)=O)cccc2[nH]1)C(=O)NCC(=O)O)[C@@H](C)O)[C@@H](C)O [Example 11],1.08
5,CC[C@H](C)[C@H](NC(=O)[C@@H]1CCCN1C(=O)[C@H](CC(N)=O)NC(=O)[C@H](CCC(N)=O)NC(=O)[C@H](CCC(=O)O)NC(=O)[C@H](C)N)C(=O)N[C@@H](Cc1ccc(O)cc1)C(=O)N[C@@H](Cc1c[nH]c2ccccc12)C(=O)N[C@@H](C)C(=O)N[C@@H](CCCNC(=N)N)C(=O)N[C@@H](Cc1ccc(O)cc1)C(=O)N[C@@H](C)C(=O)N[C@@H](CC(=O)O)C(=O)N[C@@H](Cc1c[nH]c2ccccc12)C(=O)N[C@@H](CC(C)C)C(=O)N[C@@H](Cc1ccccc1)C(=O)N[C@H](C(=O)N[C@H](C(=O)N1CCC[C@H]1C(=O)N[C@@H](CC(C)C)C(=O)N[C@@H](CC(C)C)C(=O)N[C@@H](CC(C)C)C(=O)N[C@@H](CC(C)C)C(=O)N[C@@H](CC(=O)O)C(=O)N[C@@H](CC(C)C)C(=O)N[C@@H](C)C(=O)N[C@@H](CC(C)C)C(=O)N[C@@H](CC(C)C)C(=O)N[C@H](C(=O)N[C@@H](CC(=O)O)C(=O)N[C@@H](C)C(=O)N[C@@H](CC(=O)O)C(=O)N[C@@H](CCC(=O)O)C(=O)N[C@@H](CSSCCOC(=O)N(C)Cc1ccc(-c2[nH]c3cc(F)cc4c3c2CCNC4=O)cc1)C(=O)NCC(=O)O)C(C)C)[C@@H](C)O)[C@@H](C)O [Example 15] (H-AEQNPIYWARYADWLFTTPLLLLDLALLVDADEC(X19)G-OH; N-terminus and C-terminus assumed),6.47
6,CC(C)C[C@H](NC(=O)[C@H](Cc1ccc(O)cc1)NC(=O)[C@H](C)NC(=O)[C@H](CCCNC(=N)N)NC(=O)[C@H](Cc1c[nH]c2ccccc12)NC(=O)[C@@H]1CCCN1C(=O)[C@H](CC(N)=O)NC(=O)[C@H](CCC(N)=O)NC(=O)[C@H](CC(=O)O)NC(=O)[C@H](CC(=O)O)NC(=O)[C@H](C)N)C(=O)N[C@@H](CC(=O)O)C(=O)N[C@@H](CC(C)C)C(=O)N[C@@H](CC(C)C)C(=O)N[C@@H](Cc1ccccc1)C(=O)N1CCC[C@H]1C(=O)N[C@H](C(=O)N[C@@H](CC(=O)O)C(=O)N[C@H](C(=O)N[C@@H](CC(C)C)C(=O)N[C@@H](CC(C)C)C(=O)N[C@@H](CC(C)C)C(=O)N[C@@H](CC(=O)O)C(=O)N[C@@H](CC(C)C)C(=O)N[C@@H](CC(C)C)C(=O)N[C@@H](Cc1c[nH]c2ccccc12)C(=O)N[C@@H](CSS[C@H](C)COC(=O)N(C)Cc1ccc(-c2[nH]c3cc(F)cc4c3c2CCNC4=O)cc1)C(=O)NCC(=O)O)[C@@H](C)O)[C@@H](C)O [Example 18],1.1
7,CC[C@H](C)[C@H](NC(=O)[C@@H]1CCCN1C(=O)[C@H](CC(N)=O)NC(=O)[C@H](CCC(N)=O)NC(=O)[C@H](CCC(=O)O)NC(=O)[C@H](C)N)C(=O)N[C@@H](Cc1ccc(O)cc1)C(=O)N[C@@H](Cc1c[nH]c2ccccc12)C(=O)N[C@@H](C)C(=O)N[C@@H](CCCNC(=N)N)C(=O)N[C@@H](Cc1ccc(O)cc1)C(=O)N[C@@H](C)C(=O)N[C@@H](CC(=O)O)C(=O)N[C@@H](Cc1c[nH]c2ccccc12)C(=O)N[C@@H](CC(C)C)C(=O)N[C@@H](Cc1ccccc1)C(=O)N[C@H](C(=O)N[C@H](C(=O)N1CCC[C@H]1C(=O)N[C@@H](CC(C)C)C(=O)N[C@@H](CC(C)C)C(=O)N[C@@H](CC(C)C)C(=O)N[C@@H](CC(C)C)C(=O)N[C@@H](CC(=O)O)C(=O)N[C@@H](CC(C)C)C(=O)N[C@@H](C)C(=O)N[C@@H](CC(C)C)C(=O)N[C@@H](CC(C)C)C(=O)N[C@H](C(=O)N[C@@H](CC(=O)O)C(=O)N[C@@H](C)C(=O)N[C@@H](CC(=O)O)C(=O)N[C@@H](CCC(=O)O)C(=O)N[C@@H](CSS[C@H](C)COC(=O)N(C)Cc1ccc(-c2[nH]c3cc(F)cc4c3c2CCNC4=O)cc1)C(=O)NCC(=O)O)C(C)C)[C@@H](C)O)[C@@H](C)O [Example 19] (H-AEQNPIYWARYADWLFTTPLLLLDLALLVDADEC(X12)G-OH; N-terminus and C-terminus assumed),2.2
8,CC(C)C[C@H](NC(=O)[C@H](Cc1ccc(O)cc1)NC(=O)[C@H](C)NC(=O)[C@H](CCCNC(=N)N)NC(=O)[C@H](Cc1c[nH]c2ccccc12)NC(=O)[C@@H]1CCCN1C(=O)[C@H](CC(N)=O)NC(=O)[C@H](CCC(N)=O)NC(=O)[C@H](CC(=O)O)NC(=O)[C@H](CC(=O)O)NC(=O)[C@H](C)N)C(=O)N[C@@H](CC(=O)O)C(=O)N[C@@H](CC(C)C)C(=O)N[C@@H](CC(C)C)C(=O)N[C@@H](Cc1ccccc1)C(=O)N1CCC[C@H]1C(=O)N[C@H](C(=O)N[C@@H](CC(=O)O)C(=O)N[C@H](C(=O)N[C@@H](CC(C)C)C(=O)N[C@@H](CC(C)C)C(=O)N[C@@H](CC(C)C)C(=O)N[C@@H](CC(=O)O)C(=O)N[C@@H](CC(C)C)C(=O)N[C@@H](CC(C)C)C(=O)N[C@@H](Cc1c[nH]c2ccccc12)C(=O)N[C@@H](CC(=O)O)C(=O)N[C@@H](C)C(=O)N[C@@H](CC(=O)O)C(=O)N[C@@H](CCC(=O)O)C(=O)N[C@@H](CSS[C@H](C)COC(=O)N(C)Cc1ccc(-c2[nH]c3cc(F)cc4c3c2CCNC4=O)cc1)C(=O)NCC(=O)O)[C@@H](C)O)[C@@H](C)O [Example 20],1.7
9,CC(C)C[C@H](NC(=O)[C@H](Cc1ccc(O)cc1)NC(=O)[C@H](C)NC(=O)[C@H](CCCNC(=N)N)NC(=O)[C@H](Cc1c[nH]c2ccccc12)NC(=O)[C@@H]1CCCN1C(=O)[C@H](CC(N)=O)NC(=O)[C@H](CCC(N)=O)NC(=O)[C@H](CC(=O)O)NC(=O)[C@H](CC(=O)O)NC(=O)[C@H](C)N)C(=O)N[C@@H](CC(=O)O)C(=O)N[C@@H](CC(C)C)C(=O)N[C@@H](CC(C)C)C(=O)N[C@@H](Cc1ccccc1)C(=O)N1CCC[C@H]1C(=O)N[C@H](C(=O)N[C@@H](CC(=O)O)C(=O)N[C@H](C(=O)N[C@@H](CC(C)C)C(=O)N[C@@H](CC(C)C)C(=O)N[C@@H](CC(C)C)C(=O)N[C@@H](CC(=O)O)C(=O)N[C@@H](CC(C)C)C(=O)N[C@@H](CC(C)C)C(=O)N[C@@H](Cc1c[nH]c2ccccc12)C(=O)N[C@@H](CSS[C@@H](C)COC(=O)N(C)Cc1ccc(-c2[nH]c3cc(F)cc4c3c2CCNC4=O)cc1)C(=O)NCC(=O)O)[C@@H](C)O)[C@@H](C)O [Example 21],2.2
